Drawing on patent publication US20230081426A1, “COMPOUNDS AND METHODS FOR KRAS MODULATION AND INDICATIONS THEREFOR” (Plexxikon Inc., priority 2020, published 2023), this text covers IC50 for 21 molecules.

Molecules are shown by their SMILES.

In assay [1] the target is T1, G12D-mutant human KRAS (amino acid residues 1-188) (Homo sapiens, UniProt P01116, G12D).
T1 construct: G12D or G12C-mutant human KRAS (amino acid residues 1-188) with FLAG tag; made in house; host or cells: E. coli
In words: KRAS Binding Disruption Assay (AlphaScreen; biotinylated KRpep-2d analogue or RAF1-RBD), G12D. The settings on record: KRAS G12D; geometric mean; read-out: KRAS GMean IC50 (uM) MUTATION: G12D. In a few lines: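 Compounds are titrated against 5-20 nM mutant KRAS and 5-20 nM of either a biotinylated KRpep-2d analogue or RAF1-RBD, incubated 1 h at 25° C. Disruption is detected as reduced Alpha signal after 1 h with donor and acceptor beads at 10 μg/mL.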
For orientation: In Alpha technology, singlet oxygen from a donor bead excites a nearby acceptor bead.

Assay [2] has as its target T2, G12V-mutant human KRAS (amino acid residues 1-188) (Homo sapiens, UniProt P01116, G12V).
T2 construct: G12V-mutant human KRAS (amino acid residues 1-188) with FLAG tag was purified from E. coli; made in house; host or cells: E. coli
In words: KRAS Binding Competition Assay (AlphaScreen; biotinylated KRpep-2d analogue), G12V. Conditions: geometric mean, read-out: KRAS GMean IC50 (uM) MUTATION: G12V.

Usually IC50 stands for the concentration at which inhibition is half-maximal. In the case of `Cc1cc(C(=O)N2[C@@H]3CC[C@H]2CN(c2nc(OCC45CCCN4CCC5)nc4cc(-c5cc(O)cc6ccccc56)ccc24)C3)[nH]c(=O)n1` [P-0109, 6-((1R,5S)-3-(7-(3-hydroxynaphthalen-1-yl)-2-((tetrahydro-1H-pyrrolizin-7a(5H)-yl)methoxy)quinazolin-4-yl)-3,8-diazabicyclo[3.2.1]octane-8-carbonyl)-4-methylpyrimidin-2(1H)-one], the figures for the IC50 in assay [1] and in assay [2] were 0.0001 to 10 µM and 10 to 100 µM, respectively.
The corresponding values for `O=C([C@@H]1CCNC1)N1[C@@H]2CC[C@H]1CN(c1nc(OCC34CCCN3CCC4)nc3cc(-c4cc(O)cc5ccccc45)ccc13)C2` [P-0111, ((1R,5S)-3-(7-(3-hydroxynaphthalen-1-yl)-2-((tetrahydro-1H-pyrrolizin-7a(5H)-yl)methoxy)quinazolin-4-yl)-3,8-diazabicyclo[3.2.1]octan-8-yl)((R)-pyrrolidin-3-yl)methanone] are 0.0001 to 10 µM and 0.0001 to 10 µM.
Regarding `O=C([C@H]1CCNC1)N1[C@@H]2CC[C@H]1CN(c1nc(OCC34CCCN3CCC4)nc3cc(-c4cc(O)cc5ccccc45)ccc13)C2` [P-0112, ((1R,5S)-3-(7-(3-hydroxynaphthalen-1-yl)-2-((tetrahydro-1H-pyrrolizin-7a(5H)-yl)methoxy)quinazolin-4-yl)-3,8-diazabicyclo[3.2.1]octan-8-yl)((S)-pyrrolidin-3-yl)methanone], the IC50 in assay [1] and in assay [2] was 0.0001 to 10 µM each time.
With `O=C(CN1[C@@H]2CC[C@H]1CN(c1nc(OCC34CCCN3CCC4)nc3cc(-c4cc(O)cc5ccccc45)ccc13)C2)C1CCNCC1` [P-0138, 2-((1R,5S)-3-(7-(3-hydroxynaphthalen-1-yl)-2-((tetrahydro-1H-pyrrolizin-7a(5H)-yl)methoxy)quinazolin-4-yl)-3,8-diazabicyclo[3.2.1]octan-8-yl)-1-(piperidin-4-yl)ethan-1-one], the IC50 in assay [1] and in assay [2] was 0.0001 to 10 µM each time.
With `COCCS(=O)(=O)N1[C@@H]2CC[C@H]1CN(c1nc(OCC34CCCN3CCC4)nc3cc(-c4cc(O)cc5ccccc45)ccc13)C2` [P-0139, 4-(4-((1R,5S)-8-((2-methoxyethyl)sulfonyl)-3,8-diazabicyclo[3.2.1]octan-3-yl)-2-((tetrahydro-1H-pyrrolizin-7a(5H)-yl)methoxy)quinazolin-7-yl)naphthalen-2-ol], the IC50 in assay [1] and in assay [2] was 10 to 100 µM in each case.
As to `O=C(N[C@@H]1C[C@H]2CC[C@@H]1O2)N1[C@@H]2CC[C@H]1CN(c1nc(OCC34CCCN3CCC4)nc3cc(-c4cc(O)cc5ccccc45)ccc13)C2` [P-0140, (1R,5S)-N-((1S,2R,4R)-7-oxabicyclo[2.2.1]heptan-2-yl)-3-(7-(3-hydroxynaphthalen-1-yl)-2-((tetrahydro-1H-pyrrolizin-7a(5H)-yl)methoxy)quinazolin-4-yl)-3,8-diazabicyclo[3.2.1]octane-8-carboxamide], the IC50 in assay [1] and in assay [2] was 0.0001 to 10 µM throughout.
Take `CC(C)(O)CNC(=O)N1[C@@H]2CC[C@H]1CN(c1nc(OCC34CCCN3CCC4)nc3cc(-c4cc(O)cc5ccccc45)ccc13)C2` [P-0141, (1R,5S)-N-(2-hydroxy-2-methylpropyl)-3-(7-(3-hydroxynaphthalen-1-yl)-2-((tetrahydro-1H-pyrrolizin-7a(5H)-yl)methoxy)quinazolin-4-yl)-3,8-diazabicyclo[3.2.1]octane-8-carboxamide]: the IC50 in assay [1] and in assay [2] was 0.0001 to 10 µM each time.
As for `O=C(N[C@H]1CCCNC1)N1[C@@H]2CC[C@H]1CN(c1nc(OCC34CCCN3CCC4)nc3cc(-c4cc(O)cc5ccccc45)ccc13)C2` [P-0142, (1R,5S)-3-(7-(3-hydroxynaphthalen-1-yl)-2-((tetrahydro-1H-pyrrolizin-7a(5H)-yl)methoxy)quinazolin-4-yl)-N-((S)-piperidin-3-yl)-3,8-diazabicyclo[3.2.1]octane-8-carboxamide], the IC50 in assay [1] and in assay [2] was 0.0001 to 10 µM throughout.
In the case of `O=C(N[C@@H]1CCCNC1)N1[C@@H]2CC[C@H]1CN(c1nc(OCC34CCCN3CCC4)nc3cc(-c4cc(O)cc5ccccc45)ccc13)C2` [P-0143, (1R,5S)-3-(7-(3-hydroxynaphthalen-1-yl)-2-((tetrahydro-1H-pyrrolizin-7a(5H)-yl)methoxy)quinazolin-4-yl)-N-((R)-piperidin-3-yl)-3,8-diazabicyclo[3.2.1]octane-8-carboxamide], the IC50 in assay [1] and in assay [2] was 0.0001 to 10 µM throughout.
Turning to `CN1CCC[C@H]1COc1nc(N2C[C@H]3CC[C@@H](C2)N3CC(N)=O)c2ccc(-c3cc(O)cc4ccccc34)c(F)c2n1` [P-0144, 2-((1R,5S)-3-(8-fluoro-7-(3-hydroxynaphthalen-1-yl)-2-(((S)-1-methylpyrrolidin-2-yl)methoxy)quinazolin-4-yl)-3,8-diazabicyclo[3.2.1]octan-8-yl)acetamide], the IC50 in assay [1] and in assay [2] was 0.0001 to 10 µM throughout.
On to `CN1CCC[C@H]1COc1nc(N2[C@@H]3CC[C@H]2CN(CCO)C3)c2ccc(-c3cc(O)cc4ccccc34)cc2n1` [P-0145, 4-(4-((1R,5S)-3-(2-hydroxyethyl)-3,8-diazabicyclo[3.2.1]octan-8-yl)-2-(((S)-1-methylpyrrolidin-2-yl)methoxy)quinazolin-7-yl)naphthalen-2-ol], for which the IC50 in assay [1] and in assay [2] was 10 to 100 µM throughout.
`CN(C)CCCC(=O)N1[C@@H]2CC[C@H]1CN(c1nc(OCC34CCCN3CCC4)nc3c(F)c(-c4cc(O)cc5ccccc45)ccc13)C2` [P-0146, 4-(dimethylamino)-1-((1R,5S)-3-(8-fluoro-7-(3-hydroxynaphthalen-1-yl)-2-((tetrahydro-1H-pyrrolizin-7a(5H)-yl)methoxy)quinazolin-4-yl)-3,8-diazabicyclo[3.2.1]octan-8-yl)butan-1-one]: the IC50 in assay [1] and in assay [2] was 0.0001 to 10 µM throughout.
In the case of `O=C(C1C2CCC1CNC2)N1[C@@H]2CC[C@H]1CN(c1nc(OCC34CCCN3CCC4)nc3c(F)c(-c4cc(O)cc5ccccc45)ccc13)C2` (stereo partly drawn) [P-0147, (3-azabicyclo[3.2.1]octan-8-yl)((1R,5S)-3-(8-fluoro-7-(3-hydroxynaphthalen-1-yl)-2-((tetrahydro-1H-pyrrolizin-7a(5H)-yl)methoxy)quinazolin-4-yl)-3,8-diazabicyclo[3.2.1]octan-8-yl)methanone], the IC50 in assay [1] and in assay [2] was 0.0001 to 10 µM each time.
With `CN1CCC[C@H]1COc1nc(N2[C@@H]3CC[C@H]2CNC3)c2ccc(-c3cccc(C(N)=O)n3)cc2n1` [P-0148, 6-(4-((1R,5S)-3,8-diazabicyclo[3.2.1]octan-8-yl)-2-(((S)-1-methylpyrrolidin-2-yl)methoxy)quinazolin-7-yl)picolinamide], the IC50 lay within 100 to 1000 µM in assay [1] and 10 to 100 µM in assay [2].
Taken in the same sequence, the figures for `CN1CCC(CC(=O)N2[C@@H]3CC[C@H]2CN(c2nc(OCC45CCCN4CCC5)nc4c(F)c(-c5cc(O)cc6ccccc56)ccc24)C3)CC1` [P-0149, 1-((1R,5S)-3-(8-fluoro-7-(3-hydroxynaphthalen-1-yl)-2-((tetrahydro-1H-pyrrolizin-7a(5H)-yl)methoxy)quinazolin-4-yl)-3,8-diazabicyclo[3.2.1]octan-8-yl)-2-(1-methylpiperidin-4-yl)ethan-1-one] were 0.0001 to 10 µM and 0.0001 to 10 µM.
The corresponding values for `O=C(CCCN1CCCCC1)N1[C@@H]2CC[C@H]1CN(c1nc(OCC34CCCN3CCC4)nc3c(F)c(-c4cc(O)cc5ccccc45)ccc13)C2` [P-0150, 1-((1R,5S)-3-(8-fluoro-7-(3-hydroxynaphthalen-1-yl)-2-((tetrahydro-1H-pyrrolizin-7a(5H)-yl)methoxy)quinazolin-4-yl)-3,8-diazabicyclo[3.2.1]octan-8-yl)-4-(piperidin-1-yl)butan-1-one] are 0.0001 to 10 µM and 0.0001 to 10 µM.
The corresponding values for `CN1CCC[C@H]1COc1nc(N2C[C@H]3CC[C@@H](C2)N3)c2ccc(-c3ccccc3)cc2n1` [P-0151, 4-((1R,5S)-3,8-diazabicyclo[3.2.1]octan-3-yl)-2-(((S)-1-methylpyrrolidin-2-yl)methoxy)-7-phenylquinazoline] are 100 to 1000 µM and 100 to 1000 µM.
With `Cc1ccc(N)cc1-c1ccc2c(N3C[C@H]4CC[C@@H](C3)N4)nc(OC[C@@H]3CCCN3C)nc2c1` [P-0152, 3-(4-((1R,5S)-3,8-diazabicyclo[3.2.1]octan-3-yl)-2-(((S)-1-methylpyrrolidin-2-yl)methoxy)quinazolin-7-yl)-4-methylaniline], the half-inhibitory concentration (IC50) in assay [1] and in assay [2] was 10 to 100 µM each time.
For `CN1CCC[C@H]1COc1nc(N2C[C@H]3CC[C@@H](C2)N3)c2ccc(-c3cc4ccccc4s3)cc2n1` [P-0153, 7-(benzo[b]thiophen-2-yl)-4-((1R,5S)-3,8-diazabicyclo[3.2.1]octan-3-yl)-2-(((S)-1-methylpyrrolidin-2-yl)methoxy)quinazoline], the IC50 was in the range of 10 to 100 µM in assay [1] and 100 to 1000 µM in assay [2].
In the case of `CN1CCC[C@H]1COc1nc(N2C[C@H]3CC[C@@H](C2)N3)c2ccc(-c3csc4ccccc34)cc2n1` [P-0154, 7-(benzo[b]thiophen-3-yl)-4-((1R,5S)-3,8-diazabicyclo[3.2.1]octan-3-yl)-2-(((S)-1-methylpyrrolidin-2-yl)methoxy)quinazoline], the IC50 in assay [1] and in assay [2] was 10 to 100 µM throughout.
For the molecule `Cc1cc2cn[nH]c2cc1-c1ccc2c(N3C[C@H]4CC[C@@H](C3)N4)nc(OCC3CCCN3C)nc2c1` (stereo partly drawn) [P-0155, 4-((1R,5S)-3,8-diazabicyclo[3.2.1]octan-3-yl)-7-(5-methyl-1H-indazol-6-yl)-2-((1-methylpyrrolidin-2-yl)methoxy)quinazoline], the results for the IC50 in assay [1] and in assay [2] were 100 to 1000 µM and 10 to 100 µM, respectively.
